According to patent US20020045780A1, “Biologically active spermidine analogues, pharmaceutical compositions and methods of treatment” (priority 1997, published 2002):
Where two headings read alike, the source gives them in different places.

Legend:
L1210 cells [1] = test: L1210 growth inhibition, IC50 determination; format: cell-based, murine; settings: Mus musculus
Protocol: Murine L1210 leukemia cells (ATCC CCL 219) were maintained in logarithmic growth in RPMI-1640 medium containing 10% fetal calf serum or a semi-synthetic equivalent, NuSerum, 2% HEPES-MOPS buffer and 1 mM aminoguanidine.

[2] = system: polyamine transport apparatus; test: Competitive uptake determination: inhibition of [3H]spermidine transport into L1210 cells; format: cell-based, murine; settings: analogue inhibition of spermidine transport
Outline: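 Analogues competed with [3H]spermidine for uptake into L1210 cells. Values are Ki, derived from Lineweaver–Burk analysis as competitive inhibition with respect to spermidine.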

L1210 cells [3] = test: Polyamine pool analysis in L1210 cells; format: cell-based, murine; settings: Mus musculus, L1210, 48 h, % of untreated control
Outline: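 Cells were exposed to each analogue for 48 h at two concentrations. Washed pellets were extracted with 0.6 N HClO4 (1 ml/10^7 cells), and polyamines were quantified by HPLC of dansyl derivatives.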

[4] = system: ornithine decarboxylase (ODC); test: ODC activity in treated L1210 cells; format: cell-based, murine; settings: L1210, 1 μM at 4 hours
Outline: (§1)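 L1210 cells treated with triamines; ODC activity measured at 4 h and AdoMetDC at 6 h as ^14CO2 released from [^14C]-carboxyl-labeled L-ornithine (ODC) or S-adenosyl-L-methionine (AdoMetDC). Untreated cells served as controls and DEHSPM-treated cells as positive controls.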

[5] = system: S-adenosylmethionine decarboxylase (AdoMetDC); test: AdoMetDC activity in treated L1210 cells; format: cell-based, murine; settings: L1210, 1 μM at 6 hours
Outline: as §1

[6] = system: spermidine/spermine acetyltransferase (SSAT); test: SSAT activity in treated L1210 cells; format: cell-based, murine; settings: L1210, 10 μM at 48 hours (triamine analogues)
From the text: Spermidine/spermine N^1-acetyltransferase activity was based on quantitation of [^14C]-N^1-acetylspermidine formed by acetylation of SPD with [^14C] acetyl coenzyme A according to the method of Libby et al [Biochem. Pharmacol., Vol. 38, supra]. Cells treated with DENSPM were positive controls.

laboratory animals = settings: early studies in laboratory animals; cited from earlier work

IC50 (L1210 cells [1]; L1210, 48 h, L1210, 48 hour exposure, read-out: IC50 48 hour): > 100 µM
IC50 (L1210 cells [1]; L1210, 96 h, L1210, 96 hour exposure, read-out: IC50 96 hour): > 100 µM
SMILES: NCCCCNCCCN [SPD, spermidine]
Ki [2]: 2.2 µM
activity at 100 µM (L1210 cells [3]; read-out: Put): 0%
activity at 100 µM (L1210 cells [3]; read-out: Spd): 117%
activity at 100 µM (L1210 cells [3]; read-out: Spm): 118%
activity at 500 µM (L1210 cells [3]; read-out: Put): 0%
activity at 500 µM (L1210 cells [3]; read-out: Spd): 145%
activity at 500 µM (L1210 cells [3]; read-out: Spm): 108%
ODC activity, percent of untreated control [4]: 16% of untreated control
AdoMetDC activity, percent of untreated control [5]: 43% of untreated control
SSAT activity, percent of untreated control [6]: 160% of untreated control
Nephrotoxicity relative to spermine (laboratory animals): approximately one-twentieth as nephrotoxic as spermine
